What all share (assay): Biological Example 2 glasshouse assay for herbicidal activity
Format in all cases: in vivo

The subject of assay [1] is Lolium perenne (LOLPE). The following applies: post-emergence, 14 or 15 DAA; for pest or weed control at 30 g/ha / pest or weed control at 250 g/ha: Lolium perenne, 360 h, 0.2% v/v X-77, read-out: percentage phytotoxicity LOLPE. How it is done:
(§1) Seeds of a variety of monocotyledonous and dicotyledonous test plants are sown in standard soil in pots. The plants are cultivated for one day (for pre-emergence) or for about 12 days (range=10-13 days) (for post-emergence) under controlled conditions in a glasshouse (warm climate species at 24/18° C., cool climate species at 20/16° C., both at day/night; 16 hours light; 65% humidity).
(§2) An “instant formulation”, known as the “IF50”, containing 50 g/litre (i.e. 5% w/v) of the “technical” (i.e. unformulated) active ingredient is prepared by dissolving the active ingredient in a mixture of organic solvents and emulsifier, details of which are provided in the Table below. This IF50 is then mixed with a small, variable amount of acetone to aid dissolution, before addition of a 0.2% v/v aqueous solution of the adjuvant X-77 (which is a mixture of alkyl aryl polyoxyethylene glycols and free fatty acids in isopropanol, CAS Registry number 11097-66-8), as the aqueous diluent, to form an aqueous spray solution which contains a predetermined concentration of the active ingredient (which varies depending on the application rate of the active ingredient to the plants) and 0.2% v/v of the adjuvant X-77. This aqueous spray solution is then sprayed onto the plants, after one day's cultivation (for pre-emergence) or after about 12 days' cultivation (for post-emergence).
(§3) The test plants are then grown on, in a glasshouse (greenhouse) under controlled conditions (at either 24/18° C. or 20/16° C. (day/night) as mentioned above; 16 hours light; 65% humidity) and are watered twice daily. Either 14 or 15 days after application of the herbicide (14 or 15 DAA) (for post-emergence), or 20 days after application of the herbicide (20 DAA) (for pre-emergence), the test plants are evaluated visually, and an assessed percentage phytotoxicity score is given for each herbicidal application on each plant species (where 100%=total damage to plant; 0%=no damage to plant).
(§4) Some of the typical test plants are as follows: • Cool climate crop plants: Triticum aestivum (TRZAW, winter wheat), Brassica napus (BRSNN, rape, also called oilseed rape or rapeseed), Beta vulgaris (BEAVA, sugarbeet). • Warm climate crop plants: Glycine max (GLXMA, soybean). • Cool climate (“cool season”) grassy monocotyledonous weeds: Alopecurus myosuroides (ALOMY), Avena fatua (AVEFA), Lolium perenne (LOLPE), Poa annua (POAAN), Bromus tectorum (BROTE). • Warm climate (“warm season”) grassy monocotyledonous weeds: Setaria faberi (SETFA), SORVU (Sorghum bicolor (L.) Moench ssp. Bicolor, or Sorghum vulgare Pers.), Digitaria sanguinalis (DIGSA), Echinochloa crus-galli (ECHCG), Brachiaria plantaginea (BRAPL); Zea mays (ZEAMX, corn, maize, e.g. volunteer corn).

Assay [2] has as its system Digitaria sanguinalis (DIGSA). The following applies: post-emergence, 360 h, 14 or 15 DAA, 0.2% v/v X-77, read-out: percentage phytotoxicity DIGSA. The procedure:
as §1, §2, §3, §4

Assay [3] concerns Beta vulgaris (BEAVA, sugarbeet). The following applies: post-emergence, 360 h, 14 or 15 DAA, 0.2% v/v X-77, read-out: percentage phytotoxicity BEAVA. The procedure:
as §1, §2, §3, §4

Assay [4] relates to Glycine max (GLXMA, soybean). Particulars: post-emergence, 360 h, 14 or 15 DAA, 0.2% v/v X-77, read-out: percentage phytotoxicity GLXMA. How it is done: as §1, §2, §3, §4
Assay [5] has as its system Alopecurus myosuroides (ALOMY). Particulars: post-emergence, 360 h, 14 or 15 DAA, 0.2% v/v X-77, read-out: percentage phytotoxicity ALOMY. How it is done: as §1, §2, §3, §4
Assay [6] concerns Brachiaria plantaginea (BRAPL). Particulars: Urochloa plantaginea, post-emergence, 360 h, 14 or 15 DAA, 0.2% v/v X-77, read-out: percentage phytotoxicity BRAPL. How it is done: as §1, §2, §3, §4
Assay [7] has as its system Zea mays (ZEAMX, corn, maize, e.g. volunteer corn). The following applies: post-emergence, 14 or 15 DAA; for pest or weed control at 30 g/ha / pest or weed control at 250 g/ha: Zea mays, 360 h, 0.2% v/v X-77, read-out: percentage phytotoxicity ZEAMX. The procedure: as §1, §2, §3, §4
For assay [8], the system named is Triticum aestivum (TRZAW, winter wheat). Particulars: post-emergence, 360 h, 14 or 15 DAA, 0.2% v/v X-77, read-out: percentage phytotoxicity TRZAW. The procedure:
as §1, §2, §3, §4

Assay [9] deals with SORVU (Sorghum bicolor (L.) Moench ssp. Bicolor, or Sorghum vulgare Pers.). The following applies: post-emergence, 360 h, 14 or 15 DAA, 0.2% v/v X-77, read-out: percentage phytotoxicity SORVU. How it is done:
as §1, §2, §3, §4

Assay [10] deals with Echinochloa crus-galli (ECHCG). The following applies: post-emergence, 14 or 15 DAA; for pest or weed control at 30 g/ha / pest or weed control at 250 g/ha: Echinochloa crus-galli, 360 h, 0.2% v/v X-77, read-out: percentage phytotoxicity ECHCG; for percentage phytotoxicity ECHCG: 0.2% v/v X-77. The procedure: as §1, §2, §3, §4
The subject of assay [11] is Setaria faberi (SETFA). Particulars: post-emergence, 360 h, 14 or 15 DAA, 0.2% v/v X-77, read-out: percentage phytotoxicity SETFA. The procedure:
as §1, §2, §3, §4

For assay [12], the system named is Brassica napus (BRSNN, rape). Particulars: post-emergence, 14 or 15 DAA, 0.2% v/v X-77; for plant injury at 30 g/ha / plant injury at 250 g/ha: Brassica napus, 360 h, read-out: percentage phytotoxicity BRSNN. How it is done:
as §1, §2, §3, §4

The test system of assay [13] is Avena fatua (AVEFA). The following applies: post-emergence, 360 h, 14 or 15 DAA, 0.2% v/v X-77, read-out: percentage phytotoxicity AVEFA. How it is done: as §1, §2, §3, §4

The structures appear in SMILES notation.

Take `CC#Cc1cc(F)c(C2=C(OC(=O)c3ccccc3)C3CCC(C3)C2=O)c(OC)c1` (centres unmarked) [Compound P5, [3-(2-fluoro-6-methoxy-4-prop-1-ynyl-phenyl)-4-oxo-2-bicyclo[3.2.1]oct-2-enyl]benzoate]: the pest or weed control at 30 g/ha in [1] was 80%; in assay [2], 100%; in assay [5], 70%; in [6], 90%; in assay [7], 90%; in assay [9] it was 80%. Also, the pest or weed control at 30 g/ha in [10] (30 g/ha) was determined as 100%; in [11] it was 80%; in [13], 80%. The pest or weed control at 250 g/ha in assay [1] (250 g/ha) amounted to 100%; in [2], 100%; in [5], 90%; in [6], 100%; in assay [7] (250 g/ha), 100%; in [9] it was 100%. Moreover, the pest or weed control at 250 g/ha in assay [10] (250 g/ha) amounted to 100%; in assay [11], 90%; in assay [13], 90%. Further, the plant injury at 30 g/ha in assay [3] (30 g/ha) was 0%; in assay [4] (30 g/ha), 0%; in assay [8], 50%; in [12], 50%. Also, the plant injury at 250 g/ha in assay [3] worked out at 0%; in assay [4] it was 0%; in assay [12] (250 g/ha), 80%.

Take `CC#Cc1cc(F)c(C2C(=O)C3CCC(C3)C2=O)c(OC)c1` (centres unmarked) [Compound A1, 3-(2-Fluoro-6-methoxy-4-prop-1-ynyl-phenyl)-bicyclo[3.2.1]octane-2,4-dione]: the pest or weed control at 30 g/ha in assay [1] was found to be 90%; in assay [2], 100%; in assay [5], 80%; in assay [6], 90%; in assay [7], 90%; in assay [9], 90%. The pest or weed control at 30 g/ha in [10] (30 g/ha) was 100%; in assay [11], 90%; in [13] it was 90%. Also, the pest or weed control at 250 g/ha in [1] (250 g/ha), in [2], in [5], in [6], in [7] (250 g/ha) and in assay [9] was 100% in each case. The pest or weed control at 250 g/ha in assay [10] (250 g/ha), in assay [11] and in assay [13] was 100% each time. The “percentage phytotoxicity LOLPE” value in [1] (250 g/ha, 0.2% v/v X-77) turned out to be 100%. Besides, the plant injury at 250 g/ha was 30% in assay [3], 100% in assay [8] and 80% in [12] (250 g/ha). Besides, the “percentage phytotoxicity ZEAMX” value in assay [7] (250 g/ha, 0.2% v/v X-77) is 100%. Also, the plant injury at 30 g/ha in [8] stood at 70%; in [12] it was 40%. Further, the “percentage phytotoxicity ECHCG” value in assay [10] (30 g/ha) and in assay [10] (250 g/ha) was 100% throughout. For the same molecule, in assay [12] (250 g/ha), the “percentage phytotoxicity BRSNN” value is recorded as 80%.

For the molecule `CC#Cc1cc(F)c(C2C(=O)C3CCC(C)(C2=O)C3(C)C)c(OC)c1` (centres unmarked) [Compound A2], the pest or weed control at 250 g/ha in assay [1] (250 g/ha) came to 0%; in assay [2], 80%; in assay [5] it was 60%; in assay [7] (250 g/ha) it was 90%; in assay [9] it was 90%; in assay [10] (250 g/ha) it was 90%. Also, the figures for the pest or weed control at 250 g/ha in assay [11] and in assay [13] were 80% and 0%, respectively. The plant injury at 250 g/ha in [3] was 0%; in assay [4] it was 20%; in [8], 0%; in [12] (250 g/ha), 10%.

The values above are taken from patent US10590143B2, “Herbicidally active (alkynyl-phenyl)-substituted cyclic dione compounds and derivatives thereof” (Syngenta Limited, priority 2013, dated 2020).
